Laboratory results taken from patent publication US20180180595A1, “CELL LINES MUTANT FOR PATCHED 1 AND PATCHED 2 AND METHODS OF USE THEREOF” (The Regents of the University of California, priority 2015, published 2018).

Tested on: hedgehog response pathway
Assay: Hh pathway response in neuralized embryoid bodies from Ptch1-/-;Ptch2-/- mESCs
Format: cell-based, murine
Conditions: Ptch1-/-;Ptch2-/- mESCs differentiated into NEBs; agent added exogenously
Excerpt: In the absence of Ptch1, Ptch2 can mediate some measure of the Shh response. Given the contribution of both Ptch1 and Ptch2 to the interpretation of the Shh signal, it was reasoned that a Ptch1^−/−;Ptch2^−/− genetic background was essential to assess the aggregate contribution of Ptch1/2 to Shh signaling. […] The Ptch1^−/−;Ptch2^−/−;Shh^−/− assessed here have a LacZ under the control of the Ptch1 promoter (Goodrich et al., Science. 1997, 277:1109-1113). Since the upregulation of Ptch1 is a common response to the activation of the Hh response pathway, induction of LacZ in NEBs was assessed. A strong induction of LacZ was observed after three days into the differentiation protocol, consistent with the ventral identity observed using neural markers.

With CNC1CCC(N(Cc2cccc(-c3ccncc3)c2)C(=O)c2sc3ccccc3c2Cl)CC1 (stereo not shown) [SAG] the “induction of the hedgehog response pathway” value was “could not be further induced”.
